Activity calls are given as the source filed them. The calls are words filed in the database; no cut-off is given here.
Tests used:
Rattus norvegicus [1] = assay: Inhibition of the IgE-mediated passive cutaneous anaphylaxis (PCA) reaction in rat after oral administration; Range 1.88-2.85; format: functional
Rattus norvegicus [2] = assay: Inhibition of the IgE-mediated passive cutaneous anaphylaxis (PCA) reaction in rat after intravenous administration; Range 0.104; format: functional
Rattus norvegicus [3] = assay: Inhibition of the IgE-mediated passive cutaneous anaphylaxis (PCA) reaction in rat after oral administration; Inactive at 20 mg/kg; format: functional, organism-based; design: dose 20 mg/kg
Rattus norvegicus [4] = assay: Inhibition of the IgE-mediated passive cutaneous anaphylaxis (PCA) reaction in rat after oral administration; Range 2.89-3.99; format: functional
Rattus norvegicus [5] = assay: Inhibition of the IgE-mediated passive cutaneous anaphylaxis (PCA) reaction in rat after intravenous administration; Range 0.047-0.108; format: functional
Rattus norvegicus [6] = assay: Inhibition of the IgE-mediated passive cutaneous anaphylaxis (PCA) reaction in rat after oral administration; NA means inactive; format: functional, organism-based
Rattus norvegicus [7] = assay: Inhibition of the IgE-mediated passive cutaneous anaphylaxis (PCA) reaction in rat after oral administration; Range 0.29-6.49; format: functional
Rattus norvegicus [8] = assay: Inhibition of the IgE-mediated passive cutaneous anaphylaxis (PCA) reaction in rat after intravenous administration; Range 0.34-0.45; format: functional
Rattus norvegicus [9] = assay: Inhibition of the IgE-mediated passive cutaneous anaphylaxis (PCA) reaction in rat after oral administration; Range 5.21-7.35; format: functional
Rattus norvegicus [10] = assay: Inhibition of the IgE-mediated passive cutaneous anaphylaxis (PCA) reaction in rat after intravenous administration; Range 0.1-0.44; format: functional
Rattus norvegicus [11] = assay: Inhibition of the IgE-mediated passive cutaneous anaphylaxis (PCA) reaction in rat after oral administration of 10 mg/Kg of compound; format: functional
Rattus norvegicus [12] = assay: Inhibition of the IgE-mediated passive cutaneous anaphylaxis (PCA) reaction in rat after oral administration; Range 0.07-0.03; format: functional
Rattus norvegicus [13] = assay: Inhibition of the IgE-mediated passive cutaneous anaphylaxis (PCA) reaction in rat after intravenous administration; Range 0.004-0.006; format: functional
Rattus norvegicus [14] = assay: Inhibition of the IgE-mediated passive cutaneous anaphylaxis (PCA) reaction in rat after intravenous administration; Range 0.014-0.029; format: functional
Rattus norvegicus [15] = assay: Inhibition of the IgE-mediated passive cutaneous anaphylaxis (PCA) reaction in rat after oral administration; Range 0.031-0.15; format: functional
Rattus norvegicus [16] = assay: Inhibition of the IgE-mediated passive cutaneous anaphylaxis (PCA) reaction in rat after intravenous administration; Range 0.052-0.43; format: functional
Rattus norvegicus [17] = assay: Inhibition of the IgE-mediated passive cutaneous anaphylaxis (PCA) reaction in rat after oral administration; Range 0.07-22.7; format: functional
Rattus norvegicus [18] = assay: Inhibition of the IgE-mediated passive cutaneous anaphylaxis (PCA) reaction in rat after intravenous administration; Range 0.007-0.049; format: functional
Rattus norvegicus [19] = assay: Inhibition of the IgE-mediated passive cutaneous anaphylaxis (PCA) reaction in rat after oral administration; Range 2.51-4.1; format: functional
Rattus norvegicus [20] = assay: Inhibition of the IgE-mediated passive cutaneous anaphylaxis (PCA) reaction in rat after intravenous administration; Range 0.08-0.37; format: functional
Rattus norvegicus [21] = assay: Inhibition of the IgE-mediated passive cutaneous anaphylaxis (PCA) reaction in rat after intravenous administration; Range 0.06-0.22; format: functional
Rattus norvegicus [22] = assay: Inhibition of the IgE-mediated passive cutaneous anaphylaxis (PCA) reaction in rat after intravenous administration; Range 0.31-0.45; format: functional
Rattus norvegicus [23] = assay: Inhibition of the IgE-mediated passive cutaneous anaphylaxis (PCA) reaction in rat after oral administration; Range 0.65-6.05; format: functional
Rattus norvegicus [24] = assay: Inhibition of the IgE-mediated passive cutaneous anaphylaxis (PCA) reaction in rat after intravenous administration; Range 0.066-0.453; format: functional
Rattus norvegicus [25] = assay: Inhibition of the IgE-mediated passive cutaneous anaphylaxis (PCA) reaction in rat after oral administration; Range 0.021-0.089; format: functional
Rattus norvegicus [26] = assay: Inhibition of the IgE-mediated passive cutaneous anaphylaxis (PCA) reaction in rat after oral administration; Range 0.20-0.83; format: functional
Rattus norvegicus [27] = assay: Inhibition of the IgE-mediated passive cutaneous anaphylaxis (PCA) reaction in rat after intravenous administration; Range 0.20-0.5; format: functional
Rattus norvegicus [28] = assay: Inhibition of the IgE-mediated passive cutaneous anaphylaxis (PCA) reaction in rat after intravenous administration; Range 0.39-0.96; format: functional

SMILES: CCn1c(=O)c2cc(C=O)cn2c2ccccc21
- ED50 (Rattus norvegicus [1]): 2.53 mg/kg

SMILES: O=C(O)c1ncn2c1c(O)nc1ccccc12
- ED50 (Rattus norvegicus [2]): 0.104 mg/kg
- ED50 (Rattus norvegicus [3]): inactive

SMILES: COC(=O)c1cn2c(n1)COc1ccc(NC(C)=O)cc1-2
- ED50 (Rattus norvegicus [4]): 3.48 mg/kg

SMILES: CC(=O)Nc1ccc2c(c1)-n1cc(C(=O)O)nc1CO2
- ED50 (Rattus norvegicus [5]): 0.073 mg/kg
- ED50 (Rattus norvegicus [6]): inactive

SMILES: OCc1cn2c(n1)COc1ccccc1-2
- ED50 (Rattus norvegicus [7]): 2.73 mg/kg

SMILES: O=C(O)c1cn2c(n1)CCc1ccccc1-2
- ED50 (Rattus norvegicus [8]): 0.39 mg/kg
- ED50 (Rattus norvegicus [9]): 6.14 mg/kg

SMILES: Cn1c(=O)c2cc(C(=O)O)nn2c2ccccc21
- ED50 (Rattus norvegicus [10]): 0.19 mg/kg

SMILES: O=C(OCC(O)CO)c1cn2c(ccc3ccccc32)n1 (stereo not drawn)
- Inhibition (Rattus norvegicus [11]): 47%

SMILES: CCCCCCc1cc([S+](C)(=N)[O-])cc2c(=O)c3cc(C(=O)O)ccc3oc12.NC(CO)(CO)CO (stereo not drawn)
- ED50 (Rattus norvegicus [12]): 0.19 mg/kg
- ED50 (Rattus norvegicus [13]): 0.005 mg/kg

SMILES: CCCn1c(=O)c2cc(C(=O)O)nn2c2ccccc21
- ED50 (Rattus norvegicus [14]): 0.023 mg/kg

SMILES: O=Cc1cn2c(cnc3ccccc32)n1
- ED50 (Rattus norvegicus [15]): 0.073 mg/kg
- ED50 (Rattus norvegicus [16]): 0.137 mg/kg

SMILES: Clc1ccc2c(Cl)cc3nc(-c4nn[nH]n4)cn3c2c1
- ED50 (Rattus norvegicus [17]): 0.5 mg/kg
- ED50 (Rattus norvegicus [18]): 0.016 mg/kg

SMILES: O=C(OCCCl)c1cn2c(ccc3ccccc32)n1
- ED50 (Rattus norvegicus [19]): 3.5 mg/kg

SMILES: CCc1ccc2ccc3nc(C(=O)O)cn3c2c1
- ED50 (Rattus norvegicus [20]): 0.16 mg/kg

SMILES: CCn1c(=O)c2cc(C(=O)O)nn2c2ccccc21
- ED50 (Rattus norvegicus [21]): 0.11 mg/kg

SMILES: Cc1nc(C(=O)O)c2c(O)nc3ccccc3n12
- ED50 (Rattus norvegicus [22]): 0.37 mg/kg

SMILES: CC1(C)OCC(COC(=O)c2cn3c(ccc4ccccc43)n2)O1 (stereo not drawn)
- ED50 (Rattus norvegicus [23]): 1.7 mg/kg

SMILES: OCc1cn2c(cnc3ccccc32)n1
- ED50 (Rattus norvegicus [24]): 0.156 mg/kg
- ED50 (Rattus norvegicus [25]): 0.061 mg/kg

SMILES: O=C(Nc1nn[nH]n1)c1cn2c(ccc3ccccc32)n1
- ED50 (Rattus norvegicus [26]): 0.54 mg/kg
- ED50 (Rattus norvegicus [27]): 0.31 mg/kg

SMILES: COc1ccc2c(c1)sc1nc(C(=O)O)cn12
- ED50 (Rattus norvegicus [28]): 0.62 mg/kg

— ChEMBL document CHEMBL1124295, “Synthesis and oral antiallergic activity of carboxylic acids derived from imidazo[2,1-c][1,4]benzoxazines, imidazo[1,2-a]quinolines, imidazo[1,2-a]quinoxalines, imidazo[1,2-a]quinoxalinones, pyrrolo[1,2-a]quinoxalinones, pyrrolo[2,3-a]quinoxalinones, and imidazo[2,1-b]benzothiazoles” (1988)
